Assay [1] relates to MCF-7 (breast carcinoma). Nature of the assay: CCK-8 antiproliferative assay, MCF-7. The settings on record: Homo sapiens, MCF7, 48 h, CCK8, mean of three independent experiments, NA = no activity, read-out: Inhibitory Ratio (Mean% ± SD%) MCF-7. Format: cell-based. The procedure:
(§1) All the thirty-six target derivatives (5a–5f, 10a–10o, and 12a–12o) were screened for antiproliferative activities against three human cancer cell lines (MCF-7, PC-3, and HepG2) and cytotoxicity on a normal human cell (THLE-2) at the concentration of 20 μM by using the CCK8 assay.
(§2) Thirty-six novel steroidal A-ring fused pyrazine hybrids were evaluated by Cell Counting Kit-8 (CCK-8) assays, to evaluate their in vitro antiproliferative activities on three human cancer cell lines and one normal cell line: MCF-7 (breast carcinoma), PC-3 (prostate carcinoma), HepG2 (liver hepatocellular carcinoma), and THLE-2 ([…]), with 5-fluorouracil as the positive control.
(§3) Cells (3 × 10^3 cells per well) seeded into 96-well plates (Costar, Shanghai, China) were incubated with Ham’s F-12K containing various concentrations of steroidal pyrazines (5a–5f, 10a–10o, and 12a–12o) for 48 h at 37 °C and 5% COThen, 10 μL of CCK-8 reagent (Beyotime, Shanghai, China) dissolved in PBS (Phosphate buffered saline) was added per well, and continuously incubated at 37 °C for 1 h. Finally, the absorbance of samples taken from each well was measured on a microplate reader at 450 nm. The antiproliferative activities were expressed as inhibitory activity and IC50 values calculated using GraphPad Software 5.0 (GraphPad Software, San Diego, CA, USA), which were the mean values of three independent tests and are shown in Table 1 and Table 2, respectively. The formula used for cell inhibitory rates was (1 - sample absorption/vehicle absorption) × 100%.

Assay [2] relates to PC-3 (prostate carcinoma). In words: CCK-8 antiproliferative assay, PC-3. Format: cell-based, human. The conditions noted are these: for inhibition at 20 µM / IC50: Homo sapiens; for inhibition at 20 µM: 48 h, CCK8, mean of three independent experiments, NA = no activity, read-out: Inhibitory Ratio (Mean% ± SD%) PC-3; for IC50: CCK-8, 48 h, triplicate; for SI: Selectivity index = (IC50 of THLE-2)/(IC50 of PC-3): THLE-2 vs PC-3. Here is the method:
as §1, §2, §3
On the technique in general: Tetrazolium assays rely on reduction of a dye to a coloured formazan, in cell work by metabolically active cells.

For assay [3], the system named is HepG2 (liver hepatocellular carcinoma). Nature of the assay: CCK-8 antiproliferative assay, HepG2. Format: cell-based. The settings on record: Homo sapiens, 48 h, CCK8, mean of three independent experiments, NA = no activity, read-out: Inhibitory Ratio (Mean% ± SD%) HepG2. Here is the method:
as §1, §2, §3

Assay [4] has as its system THLE-2 (normal human cells). Nature of the assay: CCK-8 cytotoxicity on normal cells, THLE-2. Format: cell-based. The settings on record: for inhibition at 20 µM: 48 h, CCK8, NA = no activity, read-out: Inhibitory Ratio (Mean% ± SD%) THLE-2; for IC50: CCK-8, 48 h. Here is the method:
as §1, §2, §3

Here are results for 29 molecules from article PMC7084598, “Design, Synthesis, and Biological Evaluation of Two Series of Novel A-Ring Fused Steroidal Pyrazines as Potential Anticancer Agents” (International Journal of Molecular Sciences, 2020).

Some results are limits rather than exact numbers.

With `O=c1[nH]cc(F)c(=O)[nH]1` [Compound 5-FU, 5-fluorouracil, reference compound], the inhibition at 20 µM stood at 47.9 ± 1.67% in assay [1], 35 ± 1.46% in assay [2], 47.7 ± 1.3% in assay [3] and 51.8 ± 0.69% in assay [4]. Further, the IC50 (commonly the concentration that gives 50% inhibition) in assay [2] came out at 22.4 ± 0.41 µM; in assay [4], 12.9 µM. The “SI: Selectivity index = (IC50 of THLE-2)/(IC50 of PC-3)” value in assay [2] was found to be 0.58.

`CC1(C)C2=CCC3C(CC[C@@]4(C)C3CC[C@@H]4C(=O)O)[C@@]2(C)Cc2nc3ccccc3nc21` (some centres unmarked) [Compound 5b]: the inhibition at 20 µM was found to be 12.5 ± 12.9% in assay [2], 7.24 ± 5.83% in assay [3] and 12.6 ± 1.22% in assay [4].

Consider `CC1(C)C2=CCC3C(CC[C@@]4(C)C3CC[C@@H]4C(=O)O)[C@@]2(C)Cc2nc3cc(Br)ccc3nc21` (some centres unmarked) [Compound 5c], for which the inhibition at 20 µM came out at 6.86 ± 7.46% in assay [1], 20.7 ± 12.5% in assay [2] and 12.5 ± 0.9% in assay [4].

For the molecule `CC1(C)C2=CCC3C(CC[C@@]4(C)C3CC[C@@H]4C(=O)O)[C@@]2(C)Cc2nc3ccc(Br)cc3nc21` (some centres unmarked) [Compound 5d], the inhibition at 20 µM in assay [1] is 12.4 ± 0.3%; in assay [2] it was 30 to 60%; in assay [4], 2.39 ± 0.65%.

As for `CC1(C)C2=CCC3C(CC[C@@]4(C)C3CC[C@@H]4C(=O)O)[C@@]2(C)Cc2nc3cc(O)ccc3nc21` (some centres unmarked) [Compound 5e], the inhibition at 20 µM in assay [1] turned out to be 6.57 ± 0.09%.

On to `CC1(C)C2=CCC3C(CC[C@@]4(C)C3CC[C@@H]4C(=O)O)[C@@]2(C)Cc2nc3ccc(O)cc3nc21` (some centres unmarked) [Compound 5f], for which the values for the inhibition at 20 µM in assay [1] and in assay [3] were 18.4 ± 13.1% and 24.9 ± 2.3%, respectively.

For `CC(O)C1CCC2C3CC=C4C(C)(C)c5nc6ccccc6nc5CC4(C)C3CCC12C` (centres unmarked) [Compound 10b], the inhibition at 20 µM in assay [1] amounted to 9.95 ± 0.55%; in assay [2] it was 12.5 ± 12.9%; in assay [3], 7.24 ± 5.83%; in assay [4], 4.35 ± 2.27%.

`CC(O)C1CCC2C3CC=C4C(C)(C)c5nc6ccc(F)cc6nc5CC4(C)C3CCC12C` (centres unmarked) [Compound 10c]: the inhibition at 20 µM was 3.85 ± 1.97% in assay [1] and 24.9 ± 2.12% in assay [2].

As for `CC(O)C1CCC2C3CC=C4C(C)(C)c5nc6cc(F)ccc6nc5CC4(C)C3CCC12C` (centres unmarked) [Compound 10d], the results for the inhibition at 20 µM in assay [1], in assay [2] and in assay [3] were 21.2 ± 9.12%, 52.8 ± 0.86% and 22.4 ± 4.89%, respectively.

Consider `CC(O)C1CCC2C3CC=C4C(C)(C)c5nc6ccc(Cl)cc6nc5CC4(C)C3CCC12C` (centres unmarked) [Compound 10e], for which the inhibition at 20 µM in assay [2] is 44.8 ± 3.26%; in assay [3] it was 25.6 ± 2.51%.

On to `CC(O)C1CCC2C3CC=C4C(C)(C)c5nc6cc(Cl)ccc6nc5CC4(C)C3CCC12C` (centres unmarked) [Compound 10f], for which the inhibition at 20 µM is 23.9 ± 1.87% in assay [1], 59.6 ± 1.29% in assay [2] and 32.6 ± 0.41% in assay [3].

For the molecule `CC(O)C1CCC2C3CC=C4C(C)(C)c5nc6ccc(Br)cc6nc5CC4(C)C3CCC12C` (centres unmarked) [Compound 10g], the inhibition at 20 µM in assay [3] is 11.7 ± 2.56%.

For `CC(O)C1CCC2C3CC=C4C(C)(C)c5nc6cc(Br)ccc6nc5CC4(C)C3CCC12C` (centres unmarked) [Compound 10h], the inhibition at 20 µM in assay [1] came out at 21.2 ± 3.73%; in assay [2] it was 21.7 ± 1.27%; in assay [3], 13.1 ± 0.68%; in assay [4] it was 2.39 ± 0.07%.

With `CC(O)C1CCC2C3CC=C4C(C)(C)c5nc6ccc(O)cc6nc5CC4(C)C3CCC12C` (centres unmarked) [Compound 10i], the inhibition at 20 µM is 17.9 ± 6.61% in assay [1] and 14.2 ± 0.87% in assay [2].

Take `CC(O)C1CCC2C3CC=C4C(C)(C)c5nc6cc(O)ccc6nc5CC4(C)C3CCC12C` (centres unmarked) [Compound 10j]: the inhibition at 20 µM is 18.6 ± 0.92% in assay [1] and 30 to 60% in assay [2].

Turning to `COc1ccc2nc3c(nc2c1)CC1(C)C(=CCC2C1CCC1(C)C(C(C)O)CCC21)C3(C)C` (centres unmarked) [Compound 10k], the results for the inhibition at 20 µM in assay [1], in assay [3] and in assay [4] were 11.2 ± 0.49%, 29.3 ± 5.38% and 3.54 ± 2.16%, respectively.

Regarding `COc1ccc2nc3c(nc2c1)C(C)(C)C1=CCC2C(CCC4(C)C(C(C)O)CCC24)C1(C)C3` (centres unmarked) [Compound 10l], the inhibition at 20 µM is 41.6 ± 1.28% in assay [1], 30 to 60% in assay [2], 33.3 ± 1.13% in assay [3] and 22.2 ± 2.72% in assay [4].

As to `CC(O)C1CCC2C3CC=C4C(C)(C)c5nc6ccc([N+](=O)[O-])cc6nc5CC4(C)C3CCC12C` (centres unmarked) [Compound 10m], the inhibition at 20 µM was found to be 14.7 ± 0.25% in assay [1], 16 ± 0.57% in assay [2] and 18.2 ± 7.46% in assay [3].

Regarding `CC(O)C1CCC2C3CC=C4C(C)(C)c5nc6cc([N+](=O)[O-])ccc6nc5CC4(C)C3CCC12C` (centres unmarked) [Compound 10n], the results for the inhibition at 20 µM in assay [1], in assay [2] and in assay [3] were 20 ± 2.56%, 16.6 ± 3.72% and 18.7 ± 2.69%, respectively.

`CC(O)C1CCC2C3CC=C4C(C)(C)c5nc(C(=O)Nc6ccccc6)cnc5CC4(C)C3CCC12C` (centres unmarked) [Compound 12a]: the inhibition at 20 µM in assay [2] amounted to 24.2 ± 0.94%; in assay [3], 12.5 ± 12.9%.

In the case of `Cc1ccccc1NC(=O)c1cnc2c(n1)C(C)(C)C1=CCC3C(CCC4(C)C(C(C)O)CCC34)C1(C)C2` (centres unmarked) [Compound 12b], the inhibition at 20 µM in assay [1] was determined as 8.12 ± 3.17%; in assay [2], 20.8 ± 7.04%; in assay [3] it was 15.2 ± 5.61%; in assay [4] it was 5.15 ± 1.79%.

As to `Cc1cccc(NC(=O)c2cnc3c(n2)C(C)(C)C2=CCC4C(CCC5(C)C(C(C)O)CCC45)C2(C)C3)c1` (centres unmarked) [Compound 12c], the inhibition at 20 µM is 3.57 ± 1.69% in assay [1], 19.9 ± 0.43% in assay [2] and 7.02 ± 3.1% in assay [3].

Regarding `CC(O)C1CCC2C3CC=C4C(C)(C)c5nc(C(=O)Nc6cccc(F)c6)cnc5CC4(C)C3CCC12C` (centres unmarked) [Compound 12f], the inhibition at 20 µM was found to be 0.8 ± 3.31% in assay [1], 33.2 ± 4.68% in assay [2] and 12.8 ± 4.26% in assay [3].

Turning to `CC(O)C1CCC2C3CC=C4C(C)(C)c5nc(C(=O)Nc6ccc(F)cc6)cnc5CC4(C)C3CCC12C` (centres unmarked) [Compound 12g], the inhibition at 20 µM is 33.4 ± 5.35% in assay [1], > 60% in assay [2] and 17.6 ± 1.39% in assay [4]. Besides, the IC50 in assay [2] was 6.88 ± 0.04 µM; in assay [4], 14.7 µM. Moreover, the “SI: Selectivity index = (IC50 of THLE-2)/(IC50 of PC-3)” value in assay [2] was determined as 2.14.

As for `CC(O)C1CCC2C3CC=C4C(C)(C)c5nc(C(=O)Nc6ccccc6Cl)cnc5CC4(C)C3CCC12C` (centres unmarked) [Compound 12h], the inhibition at 20 µM in assay [2] came to 41.7 ± 4.79%; in assay [3], 21.9 ± 2.05%.

Consider `CC(O)C1CCC2C3CC=C4C(C)(C)c5nc(C(=O)Nc6cccc(Cl)c6)cnc5CC4(C)C3CCC12C` (centres unmarked) [Compound 12i], for which the inhibition at 20 µM is 20.2 ± 0.52% in assay [1], 35.9 ± 2.97% in assay [2] and 15.9 ± 2.93% in assay [3].

For `CC(O)C1CCC2C3CC=C4C(C)(C)c5nc(C(=O)Nc6ccc(Cl)cc6)cnc5CC4(C)C3CCC12C` (centres unmarked) [Compound 12j], the inhibition at 20 µM in assay [1] is 24.9 ± 4.84%; in assay [2], 51.1 ± 1.02%; in assay [3], 23.1 ± 1.27%.

As to `COc1cccc(NC(=O)c2cnc3c(n2)C(C)(C)C2=CCC4C(CCC5(C)C(C(C)O)CCC45)C2(C)C3)c1` (centres unmarked) [Compound 12l], the inhibition at 20 µM is 13.8 ± 2.32% in assay [1], 26.9 ± 1.71% in assay [2] and 12 ± 1.67% in assay [3].

Regarding `CC(O)C1CCC2C3CC=C4C(C)(C)c5nc(C(=O)NC6CCCCC6)cnc5CC4(C)C3CCC12C` (centres unmarked) [Compound 12o], the results for the inhibition at 20 µM in assay [1] and in assay [3] were 15.1 ± 1.25% and 24.1 ± 2.34%, respectively.
